From patent US9932309B2, “2-oxo-3,4-dihydropyridine-5-carboxylates and their use” (UNIVERSITE DE LILLE 2 DROIT ET SANTE, priority 2014, dated 2018)

Assays:
hTGR5 = target: T1, hTGR5 (Homo sapiens, UniProt Q8TDU6); test: TGR5/CRE Luciferase Assay (hTGR5); assay type: cell-based; conditions: for EC50: HEK 293 cells co-transfected with pCMV tag4b-TGR5h and pCRE TA-Luciferase, overnight incubation; for hTGR5 % trans: percentage of the 10 μM LCA value, HEK 293 cells transfected with hTGR5
T1 construct: expressed in transfected cells; host or cells: HEK293 cells, transiently co-transfected with the pCRE TA-Luciferase reporter
T1 sequence (Q8TDU6 1-330): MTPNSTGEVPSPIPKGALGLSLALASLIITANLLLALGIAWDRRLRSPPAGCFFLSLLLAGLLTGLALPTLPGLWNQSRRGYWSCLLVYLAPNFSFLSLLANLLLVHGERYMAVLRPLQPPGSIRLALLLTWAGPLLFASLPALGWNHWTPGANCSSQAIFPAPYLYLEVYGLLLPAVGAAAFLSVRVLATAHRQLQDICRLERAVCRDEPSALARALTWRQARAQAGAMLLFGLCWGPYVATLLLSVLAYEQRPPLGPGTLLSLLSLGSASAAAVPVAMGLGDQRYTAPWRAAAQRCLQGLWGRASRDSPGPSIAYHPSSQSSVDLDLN
Description: (§1) TGR5/CRE Luciferase Assay
(§2) In the following Tables TGR5 activation by compounds of the invention and subsequent increase in intracellular cAMP were evaluated using a luciferase reporter gene assay. Human embryonic kidney (HEK) 293 cells were transiently co-transfected with pCMV tag4b-TGR5 h (to follow hTGR5 activation) or pCMV AC6-TGR5m (to follow mTGR5 activation) expression plasmids and the pCRE TA-Luciferase reporter plasmid using the JET PEI reagent (Polyplus transfection). Transfected cells were seeded in 96-well plates and incubated overnight with the test compounds at increasing concentrations tested in duplicate. Lithocolic acid (LCA) at 10 μM was used as a positive reference compound. The cAMP-dependent luciferase expression was followed using the BrightGlo reagent according to the manufacturer (Promega) instructions. Luminescence was read with a Mithras plate reader (Berthold) or a Victor3™ V1420 (Perkin Elmer). […] Concentration-response curves were fitted by a nonlinear regression analysis to a 4 parameter logistic equation

mTGR5 = target: T2, mTGR5 (Mus musculus, UniProt Q80SS6); test: TGR5/CRE Luciferase Assay (mTGR5); assay type: cell-based; conditions: for EC50: HEK 293 cells co-transfected with pCMV AC6-TGR5m and pCRE TA-Luciferase, overnight incubation; for mTGR5 % trans: percentage of the 10 μM LCA value, HEK 293 cells transfected with mTGR5
T2 construct: expressed in transfected cells; host or cells: HEK293 cells, transiently co-transfected with the pCRE TA-Luciferase reporter
T2 sequence (Q80SS6 1-329): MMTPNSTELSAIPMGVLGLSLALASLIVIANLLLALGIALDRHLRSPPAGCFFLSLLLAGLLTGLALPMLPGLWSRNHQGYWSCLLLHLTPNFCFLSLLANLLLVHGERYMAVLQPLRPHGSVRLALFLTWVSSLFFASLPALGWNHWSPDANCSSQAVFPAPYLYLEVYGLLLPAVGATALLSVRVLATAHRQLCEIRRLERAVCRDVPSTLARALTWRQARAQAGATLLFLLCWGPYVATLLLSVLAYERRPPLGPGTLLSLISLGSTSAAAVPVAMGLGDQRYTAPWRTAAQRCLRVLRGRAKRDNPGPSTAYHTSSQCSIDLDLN
Description: as §1, §2

SMILES | EC50 (hTGR5) [µM] | hTGR5 % trans (hTGR5) [%] | EC50 (mTGR5) [µM] | mTGR5 % trans (mTGR5) [%]
CC1=C(C(=O)OCc2ccccc2OCCS(=O)(=O)O)[C@@H](c2ccc(Cl)nc2)CC(=O)N1C[C@@H]1CCCO1.N (racemic) [Example 158, Ammonium, 2-[2-[[(4S)-4-(6-chloro-3-pyridyl)-6-methyl-2-oxo-1-[[(2R)-tetrahydrofuran-2-yl]methyl]-3,4-dihydropyridine-5-carbonyl]oxymethyl]phenoxy]ethanesulfonate and ammonium,2-[2-[[(4R)-4-(6-chloro-3-pyridyl)-6-methyl-2-oxo-1-[[(2S)-tetrahydrofuran-2-yl]methyl]-3,4-dihydropyridine-5-carbonyl]oxymethyl]phenoxy]ethanesulfonate] | 3.6 | 74 | 1.3 | 97
CC1=C(C(=O)OCc2ccccc2)C(c2ccc(C)cc2)CC(=O)N1 (stereo not drawn) [Compound 3, 2-Methyl-6-oxo-4-p-tolyl-1,4,5,6-tetrahydro-pyridine-3-carboxylic acid benzyl ester] | 7.4 | 65 | 10.4 | 45
COc1ccccc1C1CC(=O)NC(C)=C1C(=O)OCc1ccccc1 (stereo not drawn) [Compound 4, 4-(2-Methoxy-phenyl)-2-methyl-6-oxo-1,4,5,6-tetrahydro-pyridine-3-carboxylic acid benzyl ester] | 10 | 17 | 8.5 | 18
COc1cccc(C2CC(=O)NC(C)=C2C(=O)OCc2ccccc2)c1 (stereo not drawn) [Compound 5, 4-(3-Methoxy-phenyl)-2-methyl-6-oxo-1,4,5,6-tetrahydro-pyridine-3-carboxylic acid benzyl ester] | 10.6 | 31 | 11.1 | 34
CC1=C(C(=O)OCc2ccccc2)C(c2ccccc2C(F)(F)F)CC(=O)N1 (stereo not drawn) [Compound 7, 2-Methyl-6-oxo-4-(2-trifluoromethyl-phenyl)-1,4,5,6-tetrahydro-pyridine-3-carboxylic acid benzyl ester] | 5 | 22 | – | 14
CC1=C(C(=O)OCc2ccccc2)C(c2ccc(C(F)(F)F)cc2)CC(=O)N1 (stereo not drawn) [Compound 9, 2-Methyl-6-oxo-4-(4-trifluoromethyl-phenyl)-1,4,5,6-tetrahydro-pyridine-3-carboxylic acid benzyl ester] | 1.5 | 48 | 1.4 | 37
CC1=C(C(=O)OCc2ccccc2)C(c2ccc(F)cc2)CC(=O)N1 (stereo not drawn) [Compound 13, 4-(4-Fluoro-phenyl)-2-methyl-6-oxo-1,4,5,6-tetrahydro-pyridine-3-carboxylic acid benzyl ester] | 2.6 | 40 | 4.2 | 37
CC1=C(C(=O)OCc2ccccc2)C(c2ccccc2)CC(=O)N1 (stereo not drawn) [Compound 14, 2-Methyl-6-oxo-4-phenyl-1,4,5,6-tetrahydro-pyridine-3-carboxylic acid benzyl ester] | 7.6 | 30 | 10.3 | 18
COCCC1=C(C(=O)OCc2ccccc2)C(c2ccc(Cl)cc2)CC(=O)N1 (stereo not drawn) [Compound 22, benzyl 4-(4-chlorophenyl)-6-(2-methoxyethyl)-2-oxo-3,4-dihydro-1H-pyridine-5-carboxylate] | 3.51 | 36 | 4.3 | 44
CN1C=C(C(=O)NCc2ccccc2)C(c2ccc(Cl)cc2)CC1=O (stereo not drawn) [Compound 26, N-benzyl-4-(4-chlorophenyl)-1-methyl-2-oxo-3,4-dihydropyridine-5-carboxamide] | 4.6 | 10 | 1.8 | 20
O=C(NCc1ccccc1)C1=CN(CC2CC2)C(=O)CC1c1ccc(Cl)cc1 (stereo not drawn) [Compound 30, N-benzyl-4-(4-chlorophenyl)-1-(cyclopropylmethyl)-2-oxo-3,4-dihydropyridine-5-carboxamide] | 1.5 | 16 | 3.9 | 12
COCCN1C=C(C(=O)NCc2ccccc2)C(c2ccc(Cl)cc2)CC1=O (stereo not drawn) [Compound 33, N-benzyl-4-(4-chlorophenyl)-1-(2-methoxyethyl)-2-oxo-3,4-dihydropyridine-5-carboxamide] | 6.4 | 42 | 11 | 14
CN1C=C(C(=O)N(C)Cc2ccccc2)C(c2ccc(Cl)cc2)CC1=O (stereo not drawn) [Compound 33a, N-benzyl-4-(4-chlorophenyl)-N,1-dimethyl-2-oxo-3,4-dihydropyridine-5-carboxamide] | 39 | 37 | 1.1 | 16

These reach a lower EC50 (hTGR5). Values come first.

EC50 (hTGR5) [µM] | hTGR5 % trans (hTGR5) [%] | EC50 (mTGR5) [µM] | mTGR5 % trans (mTGR5) [%] | SMILES
0.6 | – | 1.4 | – | CC1=C(C(=O)OCc2ccccc2)C(c2ccc(Cl)cc2)CC(=O)N1C (stereo not drawn) [Compound 17, 4-(4-Chloro-phenyl)-1,2-dimethyl-6-oxo-1,4,5,6-tetrahydro-pyridine-3-carboxylic acid benzyl ester]
1.22 | 43 | 0.5 | 36 | O=C1CC(c2ccc(Cl)cc2)C(C(=O)NCc2ccccc2)=CN1 (stereo not drawn) [Compound 25, N-benzyl-4-(4-chlorophenyl)-2-oxo-3,4-dihydro-1H-pyridine-5-carboxamide]
1.26 | 59 | 1.5 | 37 | O=C(OCc1ccccc1)C1=CN(CC2CC2)C(=O)CC1c1ccc(Cl)cc1 (stereo not drawn) [Compound 29, Benzyl 4-(4-chlorophenyl)-1-(cyclopropylmethyl)-2-oxo-3,4-dihydropyridine-5-carboxylate]
0.6 | 77 | 1.1 | 55 | COCCN1C=C(C(=O)OCc2ccccc2)C(c2ccc(Cl)cc2)CC1=O (stereo not drawn) [Compound 32, Benzyl 4-(4-chlorophenyl)-1-(2-methoxyethyl)-2-oxo-3,4-dihydropyridine-5-carboxylate]
0.3 | – | 0.6 | – | COCCN1C(=O)CC(c2ccc(Cl)cc2)C(C(=O)OCc2ccccc2)=C1C (stereo not drawn) [Compound 37, Benzyl 4-(4-chlorophenyl)-1-(2-methoxyethyl)-6-methyl-2-oxo-3,4-dihydropyridine-5-carboxylate]
1.1 | 75 | 1.5 | 54 | C=CCN1C(=O)CC(c2ccc(Cl)cc2)C(C(=O)OCc2ccccc2)=C1C (stereo not drawn) [Compound 38, Benzyl 1-allyl-4-(4-chlorophenyl)-6-methyl-2-oxo-3,4-dihydropyridine-5-carboxylate]
1.3 | 82 | 1.4 | 73 | C=C(C)CN1C(=O)CC(c2ccc(Cl)cc2)C(C(=O)OCc2ccccc2)=C1C (stereo not drawn) [Compound 39, Benzyl 4-(4-chlorophenyl)-6-methyl-1-(2-methylallyl)-2-oxo-3,4-dihydropyridine-5-carboxylate]
0.9 | 81 | 0.9 | 76 | C#CCN1C(=O)CC(c2ccc(Cl)cc2)C(C(=O)OCc2ccccc2)=C1C (stereo not drawn) [Compound 40, Benzyl 4-(4-chlorophenyl)-6-methyl-2-oxo-1-prop-2-ynyl-3,4-dihydropyridine-5-carboxylate]
1.3 | 55 | 1.2 | 55 | CC1=C(C(=O)OCc2ccccc2)C(c2ccc(Cl)cc2)CC(=O)N1Cc1ccccc1 (stereo not drawn) [Compound 41, Benzyl 1-benzyl-4-(4-chlorophenyl)-6-methyl-2-oxo-3,4-dihydropyridine-5-carboxylate]
0.3 | 59 | 0.4 | 77 | CC1=C(C(=O)OCc2ccccc2)C(c2ccc(Cl)cc2)CC(=O)N1CC1CCC1 (stereo not drawn) [Compound 44, Benzyl 4-(4-chlorophenyl)-1-(cyclobutylmethyl)-6-methyl-2-oxo-3,4-dihydropyridine-5-carboxylate]
